This note sets out measurements from paper PMC9804224, “Statin activation of skeletal ryanodine receptors (RyR1) is a class effect but separable from HMG‐CoA reductase inhibition” (British Journal of Pharmacology, 2022).

Type in all cases: biochemical
Experiment [1] concerns the target T1, skeletal ryanodine receptor (RyR1) (Ovis aries, UniProt A0ACI6NWU0). Put plainly: increase of [3H]ryanodine binding to SR membrane vesicles (channel activation). The arrangement: native RyR1 in skeletal muscle SR membrane vesicles.
In experiment [2] the target is T1, skeletal ryanodine receptor (RyR1). Put plainly: single-channel recording in planar lipid bilayers (activation); also [3H]ryanodine binding EC50 […]. The arrangement: native RyR1 channels from skeletal muscle heavy SR vesicles.
Experiment [3] has the same target. The description is as above. Details: native RyR1 channels from skeletal muscle heavy SR vesicles. The source holds these as a separate data set.

For orientation: EC50 means the concentration giving half of the maximal effect.

In turn, `CC[C@H](C)C(=O)O[C@H]1C[C@H](O)C=C2C=C[C@H](C)[C@H](CC[C@@H](O)C[C@@H](O)CC(=O)O)[C@H]21` [pravastatin] had an EC50 in experiment [1] of 440 nM.
In experiment [2], `CC(C)c1c(C(=O)Nc2ccccc2)c(-c2ccccc2)c(-c2ccc(F)cc2)n1CC[C@@H](O)C[C@@H](O)CC(=O)O` [atorvastatin] displayed an EC50 of 29 nM.
As to `COCc1c(C(C)C)nc(C(C)C)c(/C=C/[C@@H](O)C[C@@H](O)CC(=O)O)c1-c1ccc(F)cc1` [cerivastatin], a half-maximal response in experiment [3] (EC50) required 130 nM.
Regarding `CC(C)c1nc(N(C)S(C)(=O)=O)nc(-c2ccc(F)cc2)c1/C=C/[C@@H](O)C[C@@H](O)CC(=O)O` [rosuvastatin], the half-maximal effective concentration (EC50) in experiment [1] (read-out: EC50) was determined as 490 nM.
